# Test results taken from ChEMBL document CHEMBL5252612, “A novel selective estrogen receptor degrader induces cell cycle arrest in breast cancer via ERα degradation and the autophagy-lysosome pathway” (Bioorg Med Chem, 2023).
# Calls of active or inactive are those of the source. The calls are words filed in the database; no cut-off is given here.
# Columns and labels:
# MCF7 [1] = assay: Anticancer activity against ER-alpha positive human MCF7 cells assessed as reduction in cell viability measured after 48 hrs by CCK8 assay; format: functional, cell-based
# T47D [2] = assay: Induction of cell cycle arrest in human T47D cells transfected with empty vector assessed as proportion of cells at G1 phase at 10 uM incubated for 24 hrs by flow cytometry (reference value: 17.1%); format: functional
# [3] = biological target: T1, Estrogen receptor (Homo sapiens) (UniProt P03372); assay: Induction of ER-alpha degradation in human T47D cells overexpressing ER-alpha assessed as decrease in MYC protein expression at 10 uM incubated for 24 hrs by western blot analysis; format: cell-based
# T1 sequence (whole entry): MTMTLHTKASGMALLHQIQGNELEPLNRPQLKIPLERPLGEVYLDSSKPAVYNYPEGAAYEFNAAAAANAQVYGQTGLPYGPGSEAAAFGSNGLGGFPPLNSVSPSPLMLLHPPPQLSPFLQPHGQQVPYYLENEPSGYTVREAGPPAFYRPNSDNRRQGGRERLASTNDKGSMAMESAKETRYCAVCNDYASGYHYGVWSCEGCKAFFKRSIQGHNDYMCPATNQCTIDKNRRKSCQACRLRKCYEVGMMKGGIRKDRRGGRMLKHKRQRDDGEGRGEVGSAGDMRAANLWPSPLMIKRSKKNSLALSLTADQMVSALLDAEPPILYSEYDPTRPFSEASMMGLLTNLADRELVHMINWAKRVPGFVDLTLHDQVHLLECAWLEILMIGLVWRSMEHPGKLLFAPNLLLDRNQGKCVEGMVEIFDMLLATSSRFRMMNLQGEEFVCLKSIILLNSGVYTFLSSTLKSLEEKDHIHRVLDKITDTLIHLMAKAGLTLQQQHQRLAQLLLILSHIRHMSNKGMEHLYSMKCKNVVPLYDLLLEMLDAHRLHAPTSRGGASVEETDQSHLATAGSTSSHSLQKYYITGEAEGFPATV
# MCF7 [4] = assay: Antitumor activity against human MCF7 cells xenografted in BALB/c nude mouse assessed as reduction in tumor volume at 2 to 4 mg/kg, ip administered every other day by caliper analysis; format: functional, organism-based; conditions: dose 2-4 mg/kg
# [5] = biological target: T1, Estrogen receptor (Homo sapiens); assay: Induction of ER-alpha degradation in human T47D cells assessed as decrease in ER-alpha protein expression in presence of proteasome inhibitor, MG132 by western blot analysis; format: cell-based
# T47D [6] = assay: Induction of cell cycle arrest in human T47D cells assessed as proportion of cells at G2 phase at 10 uM incubated for 24 hrs in presence of autophagy inhibitor, 3-MA by flow cytometry (reference value: 18.2%); format: functional
# T47D [7] = assay: Anticancer activity against ER-alpha positive human T47D cells assessed as reduction in cell viability measured after 48 hrs by CCK8 assay; format: functional, cell-based
# T47D [8] = assay: Induction of cell cycle arrest in human T47D cells overexpressing MYC assessed as proportion of cells at G1 phase at 10 uM incubated for 24 hrs by flow cytometry (reference value: 22.1%); format: functional
# [9] = biological target: T1, Estrogen receptor (Homo sapiens); assay: Induction of ER-alpha degradation in human T47D cells assessed as decrease in ER-alpha protein expression in presence of autophagy inhibitor, CQ by western blot analysis; format: cell-based
# T47D [10] = assay: Induction of autophagic flux in human T47D cells transfected with mCherry-EGFP-LC3 assessed as increase in red fluorescence at 1 to 10 uM incubated for 24 hrs by confocal microscopic analysis; format: functional, cell-based; conditions: dose 1-10 µM
# [11] = Anticancer activity against ER-alpha positive human LCC2 cells assessed as reduction in cell viability measured after 48 hrs by CCK8 assay; format: functional, cell-based; conditions: Homo sapiens, LCC2, 48 h; read-out: IC50
# T47D [12] = assay: Induction of cell cycle arrest in human T47D cells assessed as proportion of cells at G1 phase at 5 uM incubated for 24 hrs by flow cytometry (reference value: 66.6%); format: functional
# T47D [13] = assay: Induction of autophagy in human T47D cells assessed as upregulation of LAMP2 protein expression at 10 uM incubated for 24 hrs by western blot analysis; format: functional, cell-based
# T47D [14] = assay: Induction of apoptosis in human T47D cells at 10 uM incubated for 48 hrs by TUNEL assay; format: functional, cell-based
# MCF7 [15] = assay: Antitumor activity against human MCF7 cells xenografted in BALB/c nude mouse assessed as reduction in Ki67 expression in tumor at 2 to 4 mg/kg, ip administered every other day by immunohistochemistry; format: functional, organism-based; conditions: dose 2-4 mg/kg
# MCF7 [16] = assay: Induction of cell cycle arrest in human MCF7 cells assessed as proportion of cells at G1 phase at 1 uM incubated for 24 hrs by flow cytometry (reference value: 46.3%); format: functional
# T47D [17] = assay: Induction of autophagy in human T47D cells assessed as upregulation of MAP1LC3B expression at 10 uM incubated for 12 hrs by RNA-seq analysis; format: functional, cell-based
# [18] = biological target: T1, Estrogen receptor (Homo sapiens); assay: Induction of ER-alpha degradation in human T47D cells assessed as decrease in MYC protein expression at 10 uM incubated for 24 hrs by western blot analysis; format: cell-based
# [19] = Induction of cell cycle arrest in tamoxifen-resistant human LCC2 cells assessed as proportion of cells at G2 phase at 10 uM by flow cytometry (reference value: 23.7%); format: functional
# MCF7 [20] = assay: Induction of cell cycle arrest in human MCF7 cells assessed as proportion of cells at G2 phase at 5 uM incubated for 24 hrs by flow cytometry (reference value: 25.5%); format: functional
# MCF7 [21] = assay: Inhibition of colony formation in human MCF7 cells at 1 to 10 uM incubated for 14 days by crystal violet staining based analysis; format: functional, cell-based; conditions: dose 1-10 µM, time 14.0 day
# T47D [22] = assay: Induction of cell cycle arrest in human T47D cells overexpressing MYC assessed as proportion of cells at G2 phase at 10 uM incubated for 24 hrs by flow cytometry (reference value: 48.5%); format: functional
# [23] = Induction of cell cycle arrest in tamoxifen-resistant human LCC2 cells assessed as proportion of cells at S phase at 10 uM by flow cytometry (reference value: 28.4%); format: functional
# T47D [24] = assay: Inhibition of colony formation in human T47D cells at 1 to 5 uM incubated for 14 days by crystal violet staining based analysis; format: functional, cell-based; conditions: dose 1-5 µM, time 14.0 day
# T47D [25] = assay: Induction of apoptosis and necrosis in human T47D cells assessed as live cells at 20 uM incubated for 48 hrs by AnnexinV-FITC/PI staining based flow cytometry (reference value: 96.26%); format: functional
# T47D [26] = assay: Induction of cell cycle arrest in human T47D cells assessed as proportion of cells at G1 phase at 10 uM incubated for 24 hrs by flow cytometry (reference value: 52.6%); format: functional
# T47D [27] = assay: Induction of autophagy in human T47D cells overexpressing ESR1 assessed as increase in autophagosome number by measuring LC3 puncta formation by immunofluorescence assay; format: functional, cell-based
# T47D [28] = assay: Inhibition of colony formation in human T47D cells at 10 uM incubated for 14 days in presence of autophagy inhibitor, 3-MA by crystal violet staining based analysis; format: functional, cell-based; conditions: time 14.0 day
# T47D [29] = assay: Induction of apoptosis and necrosis in human T47D cells assessed as live cells at 10 uM incubated for 48 hrs by AnnexinV-FITC/PI staining based flow cytometry (reference value: 96.26%); format: functional
smiles,measurement,setting,value
COc1ccc(N(CC(F)(F)F)S(=O)(=O)C2CC3OC2C(c2ccc(OCCN4CCCC4)cc2)=C3c2ccc(O)cc2)cc1 (stereo unspecified),Activity,MCF7 [1],Dose-Dependent Effect
same,IC50,"MCF7 [1]; MCF7, 48 h",16.4 µM
same,Activity,T47D [2],36%
same,Activity,[3],inactive
same,Activity,MCF7 [4],Active
same,Activity,[5],inactive
same,Activity,T47D [6],19.3%
same,Activity,T47D [7],Dose-Dependent Effect
same,IC50,T47D [7],18.1 µM
same,Activity,T47D [8],20.6%
same,Activity,[9],Active
same,Activity,T47D [10],Active
same,IC50,[11],10.5 µM
same,Activity,T47D [12],76.8%
same,Activity,T47D [13],Active
same,Activity,T47D [14],Active
same,Activity,MCF7 [15],Active
same,Activity,MCF7 [16],63.7%
same,Activity,T47D [17],Active
same,Activity,[18],Active
same,Activity,[19],13%
same,Activity,MCF7 [20],16.5%
same,inhibition,MCF7 [21],Active
same,Activity,T47D [22],52.5%
same,Activity,[23],13.4%
same,inhibition,T47D [24],Active
same,Activity,T47D [25],78.57%
same,Activity,T47D [26],71.6%
same,Activity,T47D [27],Active
same,inhibition,T47D [28],inactive
same,Activity,T47D [29],93.26%
